# Key:
# in vitro [1] = conditions: human, microsomes, pH 7.4
# Protocol: The in vitro microsomal stability assay was conducted in triplicate in human liver microsomal systems. In a typical incubation, the test compound was spiked into the reaction mixture containing 0.5 mg/mL of liver microsomal protein and 1 mM of NADPH in 0.1 M potassium phosphate buffer (pH 7.4) at 37° C. At various time points, 1 volume of reaction aliquot was taken and quenched with 3 volumes of acetonitrile. The samples were then vortexed and centrifuged at 14,000 rpm for 3 min at 4° C. The supernatants were collected and analyzed by LC-MS/MS to determine the in vitro metabolic half-life (t1/2) and intrinsic clearance (CLint).
# in vitro [2] = conditions: human, plasma
# Protocol: The plasma stability assay was performed in triplicate by incubating the test compound in normal human plasma at 37° C. At 0, 1, 3, 6, and 24 h, aliquots of the plasma mixture were taken and quenched with 3 volumes of acetonitrile. The samples were then vortexed and centrifuged at 14,000 rpm for 3 min at 4° C. The supernatants were collected and analyzed by LC-MS/MS to determine the remaining percentage at various time points and to calculate plasma half-life (t1/2).
# VIM-2 [3] = molecular target: T1, VIM-2 (Pseudomonas aeruginosa, UniProt Q5U7L7); conditions: after incubation with inhibitor and dialysis
# Protocol: VIM-2 was diluted to 6 μM with 50 mM HEPES, pH 7.5, containing 150 mM NaCl. The diluted protein solution was used to make several 5 mL aliquots. […] One aliquot contained one molar equivalent of inhibitor (6 μM), with respect to enzyme concentration, and the second aliquot contained two molar equivalents (12 μM). One aliquot contained no inhibitor. Each aliquot was then incubated for 4 h at 4° C. Following incubation, each aliquot was dialyzed versus 500 mL of 50 mM HEPES, pH 7.5, for 4 h at 4° C. The aliquots were analyzed using ICP-AES, as previously described REF. The emission wavelengths used were 213.856, 238.892, 259.940, 231.604, and 324.754 nm for Zn, Co, Fe, Ni, and Cu, respectively.
# To further address the mode of action of 8-hydroxyquinolines, equilibrium dialysis experiments were conducted. […] EDTA, a well-known metal scavenger, inhibits all MBLs through a chelation mechanism (Bush, K.; Jacoby, G. A. Updated Functional Classification of beta-Lactamases. Antimicrobial Agents and Chemotherapy 2010, 54, 969-976).
# VIM-2 [4] = molecular target: T1, VIM-2; test: biochemical; conditions: read-out: VIM-2 percentage inhibition, 50 μM compound, 5 nM MBL, 10 μM nitrocefin, 30 mins
# Protocol: The pET24a-VIM-2 plasmid was transformed into competent BL21 (DE3) E. coli cells. The cells were plated onto an LB-agar plate with kanamycin (25 μg/mL) and incubated overnight at 37° C. A single colony was used to inoculate 50 mL of LB, containing 25 μg/mL kanamycin, and the culture was shaken overnight at 37° C. From the overnight culture, 10 mL were transferred to 4×IL LB medium containing 25 μg/mL kanamycin. The cultures were grown at 37° C. until an optical density (OD600 nm) of 0.6-0.8 was reached, at which point protein production was induced with IPTG (0.5 mM) and ZnCl2 (100 μM). The temperature was reduced to 20° C., and the cells were shaken for an additional 18 h. The cultures were harvested by centrifugation (8 Kxg) for 10 min at 4° C. The resulting pellets were re-suspended in 25 mL of 50 mM HEPES, pH 7.5, containing 500 mM NaCl (buffer B). The cells were lysed with three passes through a French Press. The lysate was centrifuged (15 Kxg) for 30 min at 4° C. The supernatant was dialyzed against 2 L of 50 mM HEPES, pH 7.5 (buffer A), for 4 h. Buffer A was used to equilibrate a 25 mL Q-Sepharose column using an FPLC. The sample was loaded onto the column, and proteins were eluted with a linear gradient 0-500 mM NaCl with buffer B. Fractions containing VIM-2, determined by SDS-PAGE, were pooled and concentrated to 2-3 mL in an Amicon ultraconcentrator equipped YM-10 membrane. Further purification was conducted with a Sephacryl S-200 gel filtration column using 50 mM HEPES, pH 7.5, containing 150 mM NaCl. Fractions containing pure VIM-2 were pooled, and metal analysis was performed.
# (§1) To identify potential MBL inhibitors, the relative change in the formation of hydrolyzed nitrocefin between treated and untreated MBL was determined as percentage inhibition. 5 nM of each BML was pre-incubated for 10 mins with 50 μM of each compound, followed by the addition of 10 μM nitrocefin.
# (§2) Each MBL was incubated with 50 μM of each compound, followed by the addition of nitrocefin. The relative change in absorbance is reported as percentage inhibition.
# VIM-2 expressing E. coli = type: cell-based, Escherichia coli; conditions: VIM-2 expressing E. coli, compound with amoxicillin
# Protocol: The optical density of the cell cultured was monitored at 600 nm (OD600 nm). The cells were cultured on 0.8 g/100 ml nutrient agar plate at pH 7.0 and 37° C. […] An overnight culture of the bacterial strain was sub-cultured to 0.06 OD600 nm into the NB medium and was then seeded at max 200 μl into the wells of a 96 well microtiter plate. Samples were then incubated at 37° C. and shaken at 200 rpm for 18 h. The absorbance was measured on an ELIZA plate reader and analyzed with the Gen5™ software suite (version 1.08).
# • The data are reported as relative percentage growth compared to untreated cells.
# NDM-1 = NDM-1 (Klebsiella pneumoniae, UniProt C7C422); test: biochemical; conditions: read-out: NDM-1 percentage inhibition, 50 μM compound, 5 nM MBL, 10 μM nitrocefin, 30 mins
# Chain of NDM-1 (C7C422 whole entry, looked up, species assumed): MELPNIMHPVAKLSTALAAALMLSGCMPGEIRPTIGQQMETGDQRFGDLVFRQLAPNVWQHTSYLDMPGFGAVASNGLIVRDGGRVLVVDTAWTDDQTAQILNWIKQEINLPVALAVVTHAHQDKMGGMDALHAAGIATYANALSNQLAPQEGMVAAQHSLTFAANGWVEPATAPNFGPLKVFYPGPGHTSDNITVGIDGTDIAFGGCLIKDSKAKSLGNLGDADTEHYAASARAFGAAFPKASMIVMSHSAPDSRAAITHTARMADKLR
# Protocol: BL21 (DE3) E. coli cells containing the pET26b-ndm-1 plasmid were used to inoculate a 50 mL LB starter culture containing kanamycin (25 μg/mL). The culture was grown overnight at 37° C. The starter culture was then used to inoculate 4×1 L LB containing kanamycin (25 μg/mL). These flasks were incubated at 37° C. until culture reached an optical density of (OD600) of 0.6 to 0.8. The incubator was then set to 22° C. and the cultures were shaken for 30 min to allow them to cool. ZnCl2 ([…]) and IPTG (0.5 mM) were then added to the cultures and they were grown for 18 h at 22° C. The cells were then harvested using centrifugation (8000×g) for 10 min. The pellet was resuspended with 25 mL 50 mM HEPES, pH 7.5 containing 500 mM NaCl (Buffer B). Lysis was performed with three passes through a French Press. The lysate was centrifuged for 30 min (15,000×g) at 4° C. The supernatant was then dialyzed versus 2 L 50 mM HEPES, pH 7.5 (Buffer C) for 4 h. An FPLC was used to equilibrate a Q-Sepharose column using buffer C using a flowrate of 2.0 mL/min for 1.5 h. The lysate was then loaded onto the column and eluted with a linear NaCl gradient from 0-500 mM. Fractions containing NDM-1 were identified with SDS-PAGE. These fractions were pooled and concentrated to 2-3 mL in an Amicon ultracentrifugation concentrating unit with a YM-10 membrane. The resulting protein mixture was then loaded onto a Sephacryl S-200 gel filtration column run with 50 mM HEPES, pH 7.5 containing 150 mM NaCl (Buffer A). SDS-PAGE was used to identify fractions containing pure protein.
# as §1, §2
# in vitro [5] = conditions: human, HEK293 cells
# Protocol: Human embryonic kidney cell line (HEK293) were grown in 100 mm cell culture petri dishes at 37° C. with 5% CO2 in Dulbecco's Modified Eagle's Medium high glucose medium containing 1% penicillin/streptomycin (Sigma-Aldrich, St. Louis, MO) and supplemented with 5% of fetal bovine serum (Thermo Fisher Scientific Gibco®). Cells under 10 passages and the 80% of monitored cell petri dish were used for experiment.
# Cytotoxicity of tested compounds were estimated using the MTT method. Cell viability were measured by counting viable cells by using the 3 (4,5dimethylthiazol-2-yl)-2,5-diphenyltetrazolium bromide (MTT) (Sigma-Aldrich, St. Louis, MO) colorimetric dye-reduction assay. […] Following 24 h incubation and attachment, the cells were incubated for 72 h with different concentrations of inhibitors (0.01˜100 μM) in culture media without FBS. The Control cells were supplemented only with a medium without containing FBS. All samples in 96 well plate were incubated at 37° C. at an atmosphere of 5% CO2. […] The absorbance was measured using a micro-plate reader at wavelength 590 nm. The CC50 were obtained based on a comparison with untreated cells by fitting the data to a sigmoidal dose-response equation using Graphpad Prism 6.
compound,measurement,setting,value
"O=C(O)c1ccc2cccnc2c1O [Compound 45, 8-hydroxyquinoline-7-carboxylic acid]",half-life,in vitro [1],> 1 h
same,half-life,in vitro [2],> 24 h
same,metal content of VIM-2 / removal of Zn(II) from the active site,VIM-2 [3],do not inhibit VIM-2 by removal of Zn(II)
same,inhibition at 50 µM,VIM-2 [4],94%
same,synergistic growth inhibition,VIM-2 expressing E. coli,over 96%
same,inhibition at 50 µM,NDM-1,99%
same,CC50 at 72 h,in vitro [5],> 100 µM

# — US12377086B2, “Therapeutic methods, combinations and kits” (priority 2021, dated 2025)
